Test [1] addresses T1, mesangial cell LTD4 receptor (Rattus norvegicus, UniProt Q924T8).
T1 sequence (Q924T8 1-339): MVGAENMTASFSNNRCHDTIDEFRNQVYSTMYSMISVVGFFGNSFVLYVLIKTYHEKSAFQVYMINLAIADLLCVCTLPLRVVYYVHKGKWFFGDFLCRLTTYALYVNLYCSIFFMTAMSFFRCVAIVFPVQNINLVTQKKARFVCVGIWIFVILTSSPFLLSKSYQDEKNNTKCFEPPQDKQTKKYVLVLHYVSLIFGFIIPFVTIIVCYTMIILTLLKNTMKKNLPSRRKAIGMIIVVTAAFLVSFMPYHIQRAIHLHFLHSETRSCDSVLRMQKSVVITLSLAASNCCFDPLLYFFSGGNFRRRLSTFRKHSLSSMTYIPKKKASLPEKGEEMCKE
Conditions: even at a 1000-fold excess concentration.
Procedure: Mesangial Cell Culture: Rat mesangial cells were isolated and cultured as described previously (Harris, R. C., et al., J. Clin. Invest. 82:1028-1039(1988). Briefly, kidneys were exicesed from two young Sprague-Dawly rats under sterile conditions, and the cortices removed, minced, and washed several times in Hank's Balanced Salt Solution, containing 10 mM HEPES pH 7.4, amphotericin (0.25 μg/ml), and gentamicin (50 μg/ml). The tissue was then passed through consecutive sterilized stainless mesh filters with pore sizes of 212 μm, 150 μm, and then onto the final mesh of 75 μm. The isolated glomeruli were harvested from the surface of the 75 μm. The isolated glomeruli were harvested from the surface of the 75 μm filter and washed twisce with the Hank's Media. The glomeruli were suspended in RPMI 1640 Medium with 15% Fetal Bovine Serum (Givco), penicillin (100 μ/ml) and streptomycin (100 μg/ml) (Gibco), plated into 100 mm cell culture petri dishes, and incubated at 37° C. in a humidified atmosphere of 95% air and 5% air and 5% CO2. Mesangial cell colonies were subcultured in 60 mm culture dishes, and experiments were carried out in cells from passages 2 to 12. […] Cells were routinely grown in RPMI-1640, supplemented with 20% fetal calf serum, penicillin 100 μ/ml, and streptomycin 100 μg/ml.
Binding studies were routinely performed at 4° C. […] The cells were then dissolved with 1.0 ml of 1.0 N NaOH, neutralized with HCl, dissolved in 10 ml of Aquasol (New England Nuclear, Boston, MA), and the bound radioactivity was determined using a scintillation counter (Beckman Instruments). […] Cell density was determined by counting cells from replicate wells, using a Coulter Counter ZBi (Coulter Electronics, Inc., Hialeah, Fla.).

Test [2] deals with LTD4 receptor. Conditions: cited from earlier work.
The subject of another test is rat mesangial cells. In words: IP3 formation ([3H]-inositol labeled mesangial cells) in response to LTD4 or LXA4. The following applies: Mesangial cell, read-out: increase in [3H]-IP3 counts over controls. The class given is cell-based. From the text: (§1) Statistical: ANOVA with Bonferroni modification for multiple pre-planned comparisons was used, within each group and between groups, to compare the changes in various whole kidney and microcirculatory indices which occurred from one period to another. In phosphoinositide generation studies, increases in [^3 H]-IP3 CPMs in agonist-treated cells were compared to vehicle-treated controls using upaired students t-test. Differences were considered significant at a p value ≤0.05. All values are reported as means ± SEM.
The isolated glomeruli were harvested from the surface of the 75 μm filter and washed twisce with the Hank's Media. […] Mesangial cell colonies were subcultured in 60 mm culture dishes, and experiments were carried out in cells from passages 2 to 12.
(§2) To label mesangial cells with [^3 H]-Inositol, cells grown to confluence in 60 mm culture dishes (10^6 cells/dish) were cultured in RPMI, supplemented with 10% dialyzed fetal calf serum and [^3 H]-inositol (1 μCi/ml) in a total incubation volume of 5 ml.
Reactions were terminated by the addition of cold 10% trichloroacetic acid (TCA), the supernatants subjected to ether extraction, and the aqueous phase titrated to neutral pH using 0.1 M Tris base. […] To ensure the reliability of the separation technique, the same methods for extraction and separation were applied to known amounts of [^3 H]-IP1, [^3 H]IP2, and [^3 H]-IP3 standards (New England Nuclear) mixed in a ratio of 3:2:1, respectively, and subjected to separation by HPLC.

The nature of test [3]: Renal function in vivo in anesthetized rats (AP, Hct, RPF, GFR) during intrarenal arterial infusion. Further details: species or system male Munich-Wistar rats. Conditions: for Mean percent fall in RPF / Mean percent fall in GFR: without LXA4.
Excerpt: as §1
Inulin and para-aminohippurate (PAH) clearances Were used to measure GFR and effective RPF. A needle was placed at the take-off of the left renal artery through which a maintenance infusion of 0.9% NaCl at a rate of 0.05 ml/min was initiated. […] Two experimental groups
Group I (n=14). First period: Clearances were performed during vehicle infusion.
Group II (n=12). First period: Clearances were performed during vehicle infusion.

The conditions of test [4]: intra-renal arterial LTD4 1 μg/kg/min; cited from earlier work.
Another test has as its system renal arterioles. Conditions: rat, in vivo; cited from earlier work.
In another test the test system is mesangial cells. The following applies: cited from earlier work.
A further test has as its system HL-60 myeloid cells. The following applies: DMSO-differentiated HL-60 cells; cited from earlier work.
The subject of test [5] is LTD4 receptor. As to the kind of experiment: Inhibition of LTD4-induced IP3 formation in mesangial cells. The class given is cell-based, rat. The procedure:
Mesangial Cell Culture: Rat mesangial cells were isolated and cultured as described previously (Harris, R. C., et al., J. Clin. Invest. 82:1028-1039(1988). Briefly, kidneys were exicesed from two young Sprague-Dawly rats under sterile conditions, and the cortices removed, minced, and washed several times in Hank's Balanced Salt Solution, containing 10 mM HEPES pH 7.4, amphotericin (0.25 μg/ml), and gentamicin (50 μg/ml). The tissue was then passed through consecutive sterilized stainless mesh filters with pore sizes of 212 μm, 150 μm, and then onto the final mesh of 75 μm. The isolated glomeruli were harvested from the surface of the 75 μm. The isolated glomeruli were harvested from the surface of the 75 μm filter and washed twisce with the Hank's Media. The glomeruli were suspended in RPMI 1640 Medium with 15% Fetal Bovine Serum (Givco), penicillin (100 μ/ml) and streptomycin (100 μg/ml) (Gibco), plated into 100 mm cell culture petri dishes, and incubated at 37° C. in a humidified atmosphere of 95% air and […] 5% CO2. Mesangial cell colonies were subcultured in 60 mm culture dishes, and experiments were carried out in cells from passages 2 to 12. The criteria used to establish the identify of mesangial cells were as described previously (Harris, R. C., et al., J. Clin. Invest. 82:1028-1039 (1988)). Cells were routinely grown in RPMI-1640, supplemented with 20% fetal calf serum, penicillin 100 μ/ml, and streptomycin 100 μg/ml. […] All eicosanoids were stored under argon at -70° C. in methanol and their purity and quantity verified periodically by ultraviolet scanning and high pressure liquid chromatography (Serhan, C. N. et al., J. Biol. Chem. 261:16340 (1986)).
as §2
Reactions were terminated by the addition of cold 10% trichloroacetic acid (TCA), the supernatants subjected to ether extraction, and the aqueous phase titrated to neutral pH using 0.1 M Tris base. [^3 H]-IP1, [^3 H]-IP2, and [^3 H]-IP3 in the aqueous phase were separated and quantitated by anion exchange column chromatography, using the method of Berridge et al. (Berridge, M. J., Biochem. J. 220:345-360 (1984)). To ensure the reliability of the separation technique, the same methods for extraction and separation were applied to known amounts of [^3 H]-IP1, [^3 H]IP2, and [^3 H]-IP3 standards (New England Nuclear) mixed in a ratio of 3:2:1, respectively, and subjected to separation by HPLC. The latter was performed using established methodology described previously (Cunha-Melo, J. R., et al., J. Biol. Chem. 262:11455-11463 (1987)).

Test [6] relates to LTD4 receptor. In words: Inhibition of LXA4-induced IP3 formation in mesangial cells. The class given is cell-based, rat. The method, then:
Mesangial Cell Culture: Rat mesangial cells were isolated and cultured as described previously (Harris, R. C., et al., J. Clin. Invest. 82:1028-1039(1988). Briefly, kidneys were exicesed from two young Sprague-Dawly rats under sterile conditions, and the cortices removed, minced, and washed several times in Hank's Balanced Salt Solution, containing 10 mM HEPES pH 7.4, amphotericin (0.25 μg/ml), and gentamicin (50 μg/ml). The tissue was then passed through consecutive sterilized stainless mesh filters with pore sizes of 212 μm, 150 μm, and then onto the final mesh of 75 μm. The isolated glomeruli were harvested from the surface of the 75 μm. […] All eicosanoids were stored under argon at -70° C. in methanol and their purity and quantity verified periodically by ultraviolet scanning and high pressure liquid chromatography (Serhan, C. N. et al., J. Biol. Chem. 261:16340 (1986)). […]
Reactions were terminated by the addition of cold 10% trichloroacetic acid (TCA), the supernatants subjected to ether extraction, and the aqueous phase titrated to neutral pH using 0.1 M Tris base. [^3 H]-IP1, [^3 H]-IP2, and [^3 H]-IP3 in the aqueous phase were separated and quantitated by anion exchange column chromatography, using the method of Berridge et al. (Berridge, M. J., Biochem. J. 220:345-360 (1984)). […]

A further test concerns LTD4/ LTE4 receptors. The following applies: in vivo and in vitro; cited from earlier work.
Test [7] deals with T1, mesangial cell LTD4 receptor. Details: endogenous in cells; host or cells: primary glomerular mesangial cells of young Sprague-Dawley rats, passages 2 to 12. The following applies: other studies of the inventors; cited from earlier work.
The mark [8] stands for this setting: Group I, period 2, A: LTD4 0.5 μg/kg/min, n=4.
Where [9] appears, read: Group I, period 2, B: LTD4 7 μg/kg/min, n=3.
[10] abbreviates: Group I, period 2, C: LTD4 14 μg/kg/min, n=3.
The mark [11] stands for this setting: Group I, period 2, D: LTD4 20 μg/kg/min, n=4.
[12] abbreviates: LTD4 7.0 μg/kg/min, p<0.05 vs baseline.
The mark [13] stands for this setting: LTD4 14.0 μg/kg/min, p<0.05 vs baseline.
Setting [14] is: LTD4 20.0 μg/kg/min, p<0.05 vs baseline.
The mark [15] stands for this setting: 100-fold concentrations of SKF 104353.

Entries after “also recorded” stand apart in the source; their conditions may differ.

As to `CCCCC[C@H](O)/C=C/C=C\C=C\C=C\[C@H](O)[C@@H](O)CCCC(=O)O` [6S-LXA4, 5S,6S,15S,trihydroxy-7,9,13-trans-11-cis-eicosatetraenoic acid, reference compound], the “Competition for [3H]-LTD4 at excess concentration” value in test [1] was “filed to compete for [^3 H]-LTD4”.

`CCCc1c(OCC(O)COc2ccc3c(=O)cc(C(=O)O)oc3c2CCC)ccc(C(C)=O)c1O` (stereo not drawn) [FPL-55712]: in the test on LTD4 receptor [2], the Duration of action result was “short-acting”.

Regarding `CCCCC/C=C\C\C=C/C=C/C=C/[C@@H](SC[C@H](N)C(=O)NCC(=O)O)[C@@H](O)CCCC(=O)O` [LTD4, reference compound], the activation at 0.01 µM in the test with rat mesangial cells was 146 ± 20%. Moreover, in the test with rat mesangial cells, the activation at 0.05 µM was found to be 106 ± 13%. Moreover, the “GFR and RPF change (in words)” value in [3] (Group I, LTD4 0.5-20.0 μg/kg/min) is listed as “dose-dependent reductions”. The AP in test [3] (setting [8]) is given as 127 ± 9 mmHg; in test [3] (setting [9]), 124 ± 6 mmHg; in test [3] (setting [10]) it was 148 ± 5 mmHg; in test [3] (setting [11]), 128 ± 4 mmHg. Also, the GFR worked out at 0.81 ± 0.11 mL/min in test [3] (setting [8]), 0.84 ± 0.15 mL/min in test [3] (setting [9]), 0.32 ± 0.10 mL/min in test [3] (setting [10]) and 0.34 ± 0.80 mL/min in test [3] (setting [11]). For the same compound, the Hct in test [3] (setting [8]) worked out at 48.3 ± 1.2 Vol./dl; in test [3] (setting [9]), 53.0 ± 1.5 Vol./dl; in test [3] (setting [10]) it was 59.2 ± 2.2 Vol./dl; in [3] (setting [11]), 55.0 ± 1.8 Vol./dl. For the same compound, the RPF in test [3] (setting [8]) turned out to be 3.41 ± 0.50 mL/min; in test [3] (setting [9]) it was 2.76 ± 0.59 mL/min; in [3] (setting [10]), 1.51 ± 0.44 mL/min; in test [3] (setting [11]) it was 1.20 ± 0.15 mL/min. For the same compound, the “Mean percent fall in RPF” value in test [3] (LTD4 0.5 μg/kg/min) is 24%; in test [3] (setting [12]), 40%; in test [3] (setting [13]), 65%; in test [3] (setting [14]) it was 70%. Also, the “Mean percent fall in GFR” value is 27% in test [3] (LTD4 0.5 μg/kg/min, p<0.05 vs baseline); 25% in [3] (setting [12]); 70% in [3] (setting [13]); 73% in [3] (setting [14]). In addition, in test [4], the Systemic hemodynamic alterations entry was “elevation in systemic arterial pressure and a progressive loss of plasma volume”. Besides, in the test on renal arterioles, the “Kf and GFR in vivo” value is “markedly reduces”. Besides, in the test with mesangial cells, the “Contraction of mesangial cells in culture” value was “contracts mesangial cells in culture”. For the same compound, the “Intracellular Ca2+ concentrations” value in the test with HL-60 myeloid cells is reported as “increase intracellular Ca^2+ concentrations”.

With `O=C(O)CCS[C@H](c1ccccc1CCCCCCCCc1ccccc1)[C@@H](O)C(=O)O` [SKF 104353], the “Inhibition of IP3 formation in response to LTD4 (FIG. 2)” value with LTD4 receptor [5] (setting [15]) is given as “complete abolition”. Also, the “Inhibition of LTD4-induced stimulation of [3H]-IP3 formation” value in the test on LTD4 receptor [5] (100-fold excess over ligand, LTD4 10 and 50 nM (n=3 each)) is “total abrogation”. Further, in the test on LTD4 receptor [6] (setting [15]), the “Inhibition of IP3 formation in response to LXA4 (FIG. 2)” value is “complete abolition”. In the test with LTD4 receptor [6] (SKF 104353 100 nM (n=3)), the “Inhibition of LXA4-induced IP3 formation” value is “abrogated; also recorded: total abrogation”. In addition, in the test with LTD4/ LTE4 receptors, the Agonist activity result is “devoid of agonist activity”. For the same compound, in [7], the “Inhibition of [3H]-LTD4 binding to its mesangial cell binding site” value was “inhibit [^3 H]-LTD4 binding”.

These data come from patent US5079261A, “Use of lipoxin A4 and its derivatives as antagonists for slow-reacting substances of anaphylaxis” (Brigham and Women's Hospital, priority 1989, dated 1992).
